Source: US8324263B2, “Microbiocidally active carboxamides” (Syngenta Crop Protection, LLC, priority 2007, dated 2012)

Assays:
[1] = test system: Botrytis cinerea; assay: Action against Botrytis cinerea - fungal growth assay; type: cell-based; settings: 0.002% active ingredient, PDB broth, 24° C., photometric after 3-4 days
Protocol: Conidia of the fungus from cryogenic storage are directly mixed into nutrient broth (PDB potato dextrose broth). After placing a (DMSO) solution of the test compounds (0.002% active ingredient) into a microtiter plate (96-well format) the nutrient broth containing the fungal spores is added.

melting point [°C] | SMILES | fungal growth inhibition [1] [%] | inhibition at 0.002 % strength ([1]; Botrytis cinerea) [%]
119 to 121 | Cc1cc(Br)cc(C)c1OCC(C)NC(=O)c1cn(C)nc1C(F)F (centres unmarked) [Compound 1.168, 3-difluoromethyl-1-methyl-1H-pyrazole-4-carboxylic acid [2-(4-bromo-2,6-dimethyl-phenoxy)-1-methyl-ethyl]-amide] |  | 
122 to 124 | CC(COc1c(Br)cc(Br)cc1Br)NC(=O)c1cn(C)nc1C(F)F (centres unmarked) [Compound 1.193, 3-difluoromethyl-1-methyl-1H-pyrazole-4-carboxylic acid [1-methyl-2-(2,4,6-tribromo-phenoxy)-ethyl]-amide] |  | 
 | Cn1cc(C(=O)NC2(COc3ccc(Cl)cc3)CC2)c(C(F)F)n1 [Compound 1.221] | 50 | 
115 to 118 | CC(COc1ncc(C(F)(F)F)cc1Cl)NC(=O)c1cn(C)nc1C(F)F (centres unmarked) [Compound 1.239, 3-difluoromethyl-1-methyl-1H-pyrazole-4-carboxylic acid [2-(3-chloro-5-trifluoromethyl-pyridin-2-yloxy)-1-methyl-ethyl]-amide] |  | 50
